Source: patent US9924714B2, “Impregnatable matrix of plant, animal or synthetic origin or mixtures of same, containing a uniformly distributed antimicrobial compound, method for impregnating said matrix with a compound, and use thereof in the production of antimicrobial elements” (COMPAÑIA MINERA SAN GERONIMO, priority 2013, dated 2018)

Tests used:
Format in all cases: cell-based
[1] = tested on: Streptococcus pneumoniae ATCC14325; assay: Disc growth inhibition halo test (Example 2)
[2] = tested on: Klebsiella pneumoniae ATCC4352; assay: Disc growth inhibition halo test (Example 2)
[3] = tested on: Staphylococcus aureus ATCC25923; assay: Disc growth inhibition halo test (Example 2)
[4] = tested on: Enterobacter aerogenes ATCC13048; assay: Disc growth inhibition halo test (Example 2)
[5] = tested on: Escherichia coli ATCC25922; assay: Disc growth inhibition halo test (Example 2)
[6] = tested on: Streptococcus pyogenes ATCC2367; assay: Disc growth inhibition halo test (Example 2)
[7] = tested on: Acinetobacter baumanii UDP456; assay: Disc growth inhibition halo test (Example 2)
[8] = tested on: Enterococcus faecium ISP133/04; assay: Disc growth inhibition halo test (Example 2)
[9] = tested on: Staphylococcus epidermidis ATCC25923; assay: Disc growth inhibition halo test (Example 2)
[10] = tested on: Citrobacter freundii ISP1949/99; assay: Disc growth inhibition halo test (Example 2)
[11] = tested on: Enterococcus faecalis ATCC29212; assay: Disc growth inhibition halo test (Example 2)
[12] = tested on: Pseudomonas aeruginosa PAOI; assay: Disc growth inhibition halo test (Example 2)
[13] = tested on: 12 bacterial strains; assay: Antibacterial activity of four copper compounds, summary (Example 2); details: discs 200-800 μg, summary in words

O=P([O-])([O-])[O-].[Cu+2].[Cu+2].[OH-] [Copper hydroxyphosphate compound (II), copper hydroxyphosphate (II)]
Growth inhibition zone ([1]; 200 μg on 5 mm disc): 5.0 mm | Growth inhibition zone ([1]; 400 μg on 5 mm disc): 5.0 mm | Growth inhibition zone ([1]; 600 μg on 5 mm disc): 5.0 mm | Growth inhibition zone ([1]; 800 μg on 5 mm disc): 5.0 mm | Growth inhibition zone ([2]; 200 μg on 5 mm disc): 5.0 mm | Growth inhibition zone ([2]; 400 μg on 5 mm disc): 5.0 mm | Growth inhibition zone ([2]; 600 μg on 5 mm disc): 5.0 mm | Growth inhibition zone ([2]; 800 μg on 5 mm disc): 5.0 mm | Growth inhibition zone ([3]; 200 μg on 5 mm disc): 5.0 mm | Growth inhibition zone ([3]; 400 μg on 5 mm disc): 5.0 mm | Growth inhibition zone ([3]; 600 μg on 5 mm disc): 5.0 mm | Growth inhibition zone ([3]; 800 μg on 5 mm disc): 5.0 mm | Growth inhibition zone ([4]; 200 μg on 5 mm disc): 5.0 mm | Growth inhibition zone ([4]; 400 μg on 5 mm disc): 5.0 mm | Growth inhibition zone ([4]; 600 μg on 5 mm disc): 5.0 mm | Growth inhibition zone ([4]; 800 μg on 5 mm disc): 5.0 mm | Growth inhibition zone ([5]; 200 μg on 5 mm disc): 5.0 mm | Growth inhibition zone ([5]; 400 μg on 5 mm disc): 5.0 mm | Growth inhibition zone ([5]; 600 μg on 5 mm disc): 5.0 mm | Growth inhibition zone ([5]; 800 μg on 5 mm disc): 5.0 mm | Growth inhibition zone ([6]; 200 μg on 5 mm disc): 5.0 mm | Growth inhibition zone ([6]; 400 μg on 5 mm disc): 5.0 mm | Growth inhibition zone ([6]; 600 μg on 5 mm disc): 5.0 mm | Growth inhibition zone ([6]; 800 μg on 5 mm disc): 8.6 ± 0.6 mm | Growth inhibition zone ([7]; 200 μg on 5 mm disc): 5.0 mm | Growth inhibition zone ([7]; 400 μg on 5 mm disc): 8.6 ± 0.6 mm | Growth inhibition zone ([7]; 600 μg on 5 mm disc): 7.3 ± 2 mm | Growth inhibition zone ([7]; 800 μg on 5 mm disc): 7.6 ± 2.3 mm | Growth inhibition zone ([8]; 200 μg on 5 mm disc): 5.0 mm | Growth inhibition zone ([8]; 400 μg on 5 mm disc): 5.0 mm | Growth inhibition zone ([8]; 600 μg on 5 mm disc): 5.0 mm | Growth inhibition zone ([8]; 800 μg on 5 mm disc): 5.0 mm | Growth inhibition zone ([9]; 200 μg on 5 mm disc): 5.0 mm | Growth inhibition zone ([9]; 400 μg on 5 mm disc): 5.0 mm | Growth inhibition zone ([9]; 600 μg on 5 mm disc): 5.6 ± 0.5 mm | Growth inhibition zone ([9]; 800 μg on 5 mm disc): 6.3 ± 1.1 mm | Growth inhibition zone ([10]; 200 μg on 5 mm disc): 5.0 mm | Growth inhibition zone ([10]; 400 μg on 5 mm disc): 5.0 mm | Growth inhibition zone ([10]; 600 μg on 5 mm disc): 5.0 mm | Growth inhibition zone ([10]; 800 μg on 5 mm disc): 5.0 mm | Growth inhibition zone ([11]; 200 μg on 5 mm disc): 5.0 mm | Growth inhibition zone ([11]; 400 μg on 5 mm disc): 5.0 mm | Growth inhibition zone ([11]; 600 μg on 5 mm disc): 5.0 mm | Growth inhibition zone ([11]; 800 μg on 5 mm disc): 5.0 mm | Growth inhibition zone ([12]; 200 μg on 5 mm disc): 5.0 mm | Growth inhibition zone ([12]; 400 μg on 5 mm disc): 5.0 mm | Growth inhibition zone ([12]; 600 μg on 5 mm disc): 5.0 mm | Growth inhibition zone ([12]; 800 μg on 5 mm disc): 5.0 mm

[Cl-].[Cu+2].[Cu+2].[OH-].[OH-].[OH-] [copper oxychloride compound (II), copper oxychloride (II)]
Growth inhibition zone ([1]; 200 μg on 5 mm disc): 5.0 ± 1.0 mm | Growth inhibition zone ([1]; 400 μg on 5 mm disc): 8.0 ± 0.7 mm | Growth inhibition zone ([1]; 600 μg on 5 mm disc): 9.0 ± 1.0 mm | Growth inhibition zone ([1]; 800 μg on 5 mm disc): 11.0 ± 1.2 mm | antibacterial activity [13]: antibacterial activity against Staphylococcus aureus, Staphylococcus epidermidis, Streptococcus pyogenes, Escherichia coli and Acinetobacter baumannii | Growth inhibition zone ([2]; 200 μg on 5 mm disc): 7.3 ± 0.6 mm | Growth inhibition zone ([2]; 400 μg on 5 mm disc): 8.7 ± 0.6 mm | Growth inhibition zone ([2]; 600 μg on 5 mm disc): 9.7 ± 0.6 mm | Growth inhibition zone ([2]; 800 μg on 5 mm disc): 10.0 mm | Growth inhibition zone ([3]; 200 μg on 5 mm disc): 6.0 ± 1.0 mm | Growth inhibition zone ([3]; 400 μg on 5 mm disc): 10.3 ± 0.6 mm | Growth inhibition zone ([3]; 600 μg on 5 mm disc): 11.7 ± 0.6 mm | Growth inhibition zone ([3]; 800 μg on 5 mm disc): 14.0 ± 1.0 mm | Growth inhibition zone ([4]; 200 μg on 5 mm disc): 7.3 ± 1.5 mm | Growth inhibition zone ([4]; 400 μg on 5 mm disc): 3.7 ± 1.5 mm | Growth inhibition zone ([4]; 600 μg on 5 mm disc): 9.7 ± 0.6 mm | Growth inhibition zone ([4]; 800 μg on 5 mm disc): 9.7 ± 1.5 mm | Growth inhibition zone ([5]; 200 μg on 5 mm disc): 13.3 ± 1.4 mm | Growth inhibition zone ([5]; 400 μg on 5 mm disc): 13.0 ± 0.7 mm | Growth inhibition zone ([5]; 600 μg on 5 mm disc): 15.0 ± 0.7 mm | Growth inhibition zone ([5]; 800 μg on 5 mm disc): 13.3 ± 0.7 mm | Growth inhibition zone ([6]; 200 μg on 5 mm disc): 5.0 ± 1.0 mm | Growth inhibition zone ([6]; 400 μg on 5 mm disc): 6.0 ± 1.0 mm | Growth inhibition zone ([6]; 600 μg on 5 mm disc): 7.0 ± 1.2 mm | Growth inhibition zone ([6]; 800 μg on 5 mm disc): 8.0 ± 1.4 mm | Growth inhibition zone ([7]; 200 μg on 5 mm disc): 11.7 ± 0.6 mm | Growth inhibition zone ([7]; 400 μg on 5 mm disc): 15.7 ± 0.6 mm | Growth inhibition zone ([7]; 600 μg on 5 mm disc): 17.0 ± 1.0 mm | Growth inhibition zone ([7]; 800 μg on 5 mm disc): 19.7 ± 0.6 mm | Growth inhibition zone ([8]; 200 μg on 5 mm disc): 6.0 ± 1.0 mm | Growth inhibition zone ([8]; 400 μg on 5 mm disc): 6.0 ± 1.0 mm | Growth inhibition zone ([8]; 600 μg on 5 mm disc): 6.0 ± 1.0 mm | Growth inhibition zone ([8]; 800 μg on 5 mm disc): 6.0 ± 1.0 mm | Growth inhibition zone ([9]; 200 μg on 5 mm disc): 12.0 ± 0.6 mm | Growth inhibition zone ([9]; 400 μg on 5 mm disc): 14.3 ± 0.6 mm | Growth inhibition zone ([9]; 600 μg on 5 mm disc): 13.7 ± 1.5 mm | Growth inhibition zone ([9]; 800 μg on 5 mm disc): 14.6 ± 0.6 mm | Growth inhibition zone ([10]; 200 μg on 5 mm disc): 8.0 ± 1.0 mm | Growth inhibition zone ([10]; 400 μg on 5 mm disc): 10.7 ± 1.5 mm | Growth inhibition zone ([10]; 600 μg on 5 mm disc): 11.3 ± 0.6 mm | Growth inhibition zone ([10]; 800 μg on 5 mm disc): 11.3 ± 1.5 mm | Growth inhibition zone ([11]; 200 μg on 5 mm disc): 6.0 ± 1.0 mm | Growth inhibition zone ([11]; 400 μg on 5 mm disc): 6.0 ± 1.0 mm | Growth inhibition zone ([11]; 600 μg on 5 mm disc): 6.0 ± 1.0 mm | Growth inhibition zone ([11]; 800 μg on 5 mm disc): 6.0 ± 1.0 mm | Growth inhibition zone ([12]; 200 μg on 5 mm disc): 6.3 ± 1.5 mm | Growth inhibition zone ([12]; 400 μg on 5 mm disc): 6.7 ± 1.2 mm | Growth inhibition zone ([12]; 600 μg on 5 mm disc): 8.3 ± 0.6 mm | Growth inhibition zone ([12]; 800 μg on 5 mm disc): 3.3 ± 1.7 mm
